The text below walks through data of patent US20120035155A1, “INDOLE-2-CARBOXAMIDE DEIVATIVE” (MSD K.K., priority 2009, published 2012).

The target of this test is T1, human QRFP receptor (GPR103) (Homo sapiens, UniProt Q96P65).
T1 construct: expressed in transfected cells; host or cells: CHO-K1 NFAT β-Lactamase (Aurora); membrane sample
T1 sequence (Q96P65 1-431): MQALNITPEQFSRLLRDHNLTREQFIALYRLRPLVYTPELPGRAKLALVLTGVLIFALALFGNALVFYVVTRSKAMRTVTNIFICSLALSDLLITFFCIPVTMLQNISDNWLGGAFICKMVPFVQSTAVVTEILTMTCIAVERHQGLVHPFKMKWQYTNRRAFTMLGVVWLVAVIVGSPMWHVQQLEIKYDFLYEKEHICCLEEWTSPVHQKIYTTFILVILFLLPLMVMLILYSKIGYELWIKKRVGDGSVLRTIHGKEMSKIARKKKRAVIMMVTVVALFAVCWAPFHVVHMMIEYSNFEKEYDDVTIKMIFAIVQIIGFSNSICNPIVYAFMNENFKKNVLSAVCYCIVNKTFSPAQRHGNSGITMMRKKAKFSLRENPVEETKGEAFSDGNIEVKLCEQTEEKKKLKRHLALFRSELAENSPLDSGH
Description: QRFP43-Binding Inhibitory Test. Conditions: inhibition of specific [125I] QRFP43 binding; membrane sample of CHO-K1 NFAT β-Lactamase cells expressing GPR103; 25° C., 1 hour. An excerpt: A cDNA sequence [Accession No. NM_198179] coding for a human QRFP receptor (GPR103) was cloned in an expression vector pEF1V5-H isB (by Invitrogen). The resulting expression vector was transfected in a host cell CHO-K1 NFAT β-Lactamase (by Aurora), according to a cationic lipid process [see Proceedings of the National Academy of Sciences of the United States of America, Vol. 84, p. 7413, 1987], thereby producing a QRFP receptor (GPR103).
A membrane sample prepared from the cells having expressed a QRFP receptor (GPR103) was incubated in an assay buffer (50 mM Tris-HCl, 1 mM EDTA and 0.1% BSA, pH 7.4) along with a test compound and 20,000 cpm [^125I] QRFP43 (by Perkin Elmer) therein, at 25° C. for 1 hour, and then filtered through a glass filter GF/C. After washed with 50 mM Tris-HCl (containing 2 mM EDTA, 10 mM MgCl2 and 0.04% Tween-20) buffer (pH 7.4), the radioactivity on the glass filter was determined. The non-specific binding was determined in the presence of 1 μM peptide QRFP43, and the 50% inhibitory concentration (IC50) of the test compound to the specific [^125I] QRFP43 binding was computed [see Endocrinology, Vol. 131, p. 2090, 1992].
One may read the IC50 as the point on the concentration scale where inhibition reaches its midpoint. `Cn1c(C(=O)NCc2ccc3c(c2)CCNC3)cc2ccccc21` [Example 1, 1-Methyl-N-(1,2,3,4-tetrahydroisoquinolin-6-ylmethyl)-1H-indole-2-carboxamide] gave an IC50 of 61 nM.
Consider `CCN1CCc2cc(CNC(=O)c3cc4ccccc4n3C)ccc2C1` [Example 2, N-(2-ethyl-1,2,3,4-tetrahydroisoquinolin-6-ylmethyl)-1-methyl-1H-indole-2-carboxamide], for which the concentration for half-maximal inhibition (IC50) stood at 49 nM.
For `CN(C)Cc1ccc2c(c1)CCN(C(=O)c1cc3cc(Cl)ccc3n1C)C2` [Example 7, [6-Dimethylaminomethyl-3,4-dihydro-2(1H)isoquinolin-2-yl](5-chloro-1-methyl-1H-indol-2-yl)methanone] the value was 6.1 nM; for `Cn1c(C(=O)NCc2ccc3c(c2)CCN(C2CCCC2)C3)cc2ccccc21` [Example 3, N-(2-cyclopentyl-1,2,3,4-tetrahydroisoquinolin-6-ylmethyl)-1-methyl-1H-indole-2-carboxamide], 45 nM; for `CN(C)Cc1ccc2c(c1)CCN(C(=O)c1cc3ccccc3n1C)C2` [Example 4, [6-Dimethylaminomethyl-3,4-dihydro-2(1H)isoquinolin-2-yl](1-methyl-1H-indol-2-yl)methanone], 5.8 nM.
The value for `CNCc1ccc2c(c1)CCN(C(=O)c1cc3cc(Cl)ccc3n1C)C2` [Example 8, [6-methylaminomethyl-3,4-dihydro-2(1H)isoquinolin-2-yl](5-chloro-1-methyl-1H-indol-2-yl)methanone] was 25 nM.
The molecule `Cn1c(C(=O)N2CCc3cc(CN4CCC4)ccc3C2)cc2ccccc21` [Example 6, [6-(Azetidin-1-ylmethyl)-3,4-dihydro-2(1H)isoquinolin-2-yl](1-methyl-1H-indol-2-yl)methanone] showed an IC50 of 43 nM. Compared with the last molecule, the IC50 is about 1.7-fold higher.
As to `CNCc1ccc2c(c1)CCN(C(=O)c1cc3ccccc3n1C)C2` [Example 5, [6-Methylaminomethyl-3,4-dihydro-2(1H)isoquinolin-2-yl](1-methyl-1H-indol-2-yl)methanone], the IC50 worked out at 19 nM.
